We go through five molecules from patent US20110086759A1, “CHEMICAL COMPOUNDS” (SYNGENTA CROP PROTECTION, INC., priority 2007, published 2011).

Data set [1] relates to Alopecurus myosuroides (ALOMY). Nature of the data set: Pre-emergence biological efficacy, glasshouse pot test. Format: in vivo. The conditions noted are these: 312 h. An outline of the steps:
(§1)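 Seeds sown in standard soil in pots, held one day in glasshouse (24/16 °C day/night, 14 h light, 65% humidity), then sprayed with aqueous solution from acetone/water (50:50) formulation with 0.5% Tween 20 at 1000 or 250 g/ha. Damage scored after 13 days (0 = none, 100 = total).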

Data set [2] has as its system Ipomea hederaceae (IPOHE). Described as above. The format is in vivo. The conditions noted are these: Ipomoea hederacea, 312 h. The gist of the method:
as §1

The subject of data set [3] is Amaranthus retoflexus (AMARE). Described as above. The format is in vivo. The conditions noted are these: Amaranthus retroflexus, 312 h. An outline of the steps: as §1
Data set [4] relates to Echinochloa crus-galli (ECHCG). Described as above. Format: in vivo. As to conditions: 312 h. An outline of the steps:
as §1

Data set [5] relates to Setaria faberi (SETFA). The data set is described as above. As to conditions: 312 h. The format is in vivo. An outline of the steps:
as §1

For data set [6], the system named is Solanum nigrum (SOLNI). Described as above. The format is in vivo. The conditions noted are these: 312 h. An outline of the steps: as §1
The subject of data set [7] is Alopecurus myosuroides (ALOMY). Nature of the data set: Post-emergence biological efficacy, glasshouse pot test. The conditions noted are these: 312 h. Format: in vivo. The gist of the method:
(§2)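 Plants were sown in standard soil and grown 8 days in a glasshouse (24/16° C. day/night, 14 hours light, 65% humidity), then sprayed post-emergence at 1000 or 250 g/ha from acetone/water (50:50) with 0.5% Tween 20. Damage was scored visually after 13 days (0 = none, 100 = total).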

Data set [8] deals with Ipomea hederaceae (IPOHE). Described as above. The conditions noted are these: Ipomoea hederacea, 312 h. Format: in vivo. An outline of the steps: as §2
The subject of data set [9] is Amaranthus retoflexus (AMARE). The description is as above. The conditions noted are these: Amaranthus retroflexus, 312 h. The format is in vivo. The gist of the method:
as §2

For data set [10], the system named is Echinochloa crus-galli (ECHCG). The data set is described as above. The format is in vivo. The conditions noted are these: 312 h. The gist of the method:
as §2

Data set [11] deals with Setaria faberi (SETFA). The description is as above. The format is in vivo. As to conditions: 312 h. The gist of the method:
as §2

Data set [12] relates to Solanum nigrum (SOLNI). The description is as above. The format is in vivo. As to conditions: 312 h. The gist of the method:
as §2

Setting [13] is: pre-emergence, rate 1,000 g/ha, evaluated after 13 days (100=total damage to plant; 0=no damage), read-out: Percentage damage caused to weed species, ALOMY.
Where [14] appears, read: pre-emergence, rate 1,000 g/ha, evaluated after 13 days (100=total damage to plant; 0=no damage), read-out: Percentage damage caused to weed species, IPOHE.
Setting [15] is: pre-emergence, rate 1,000 g/ha, evaluated after 13 days (100=total damage to plant; 0=no damage), read-out: Percentage damage caused to weed species, AMARE.
Where [16] appears, read: pre-emergence, rate 1,000 g/ha, evaluated after 13 days (100=total damage to plant; 0=no damage), read-out: Percentage damage caused to weed species, ECHCG.
The mark [17] stands for this setting: pre-emergence, rate 1,000 g/ha, evaluated after 13 days (100=total damage to plant; 0=no damage), read-out: Percentage damage caused to weed species, SETFA.
The mark [18] stands for this setting: pre-emergence, rate 1,000 g/ha, evaluated after 13 days (100=total damage to plant; 0=no damage), read-out: Percentage damage caused to weed species, SOLNI.
Where [19] appears, read: Rate 1,000 g/ha, post-emergence spray, evaluated after 13 days (100=total damage to plant; 0=no damage to plant), read-out: Percentage damage caused to weed species, post-emergence, ALOMY.
Setting [20] is: Rate 1,000 g/ha, post-emergence spray, evaluated after 13 days (100=total damage to plant; 0=no damage to plant), read-out: Percentage damage caused to weed species, post-emergence, IPOHE.
[21] abbreviates: Rate 1,000 g/ha, post-emergence spray, evaluated after 13 days (100=total damage to plant; 0=no damage to plant), read-out: Percentage damage caused to weed species, post-emergence, AMARE.
Setting [22] is: Rate 1,000 g/ha, post-emergence spray, evaluated after 13 days (100=total damage to plant; 0=no damage to plant), read-out: Percentage damage caused to weed species, post-emergence, ECHCG.
Setting [23] is: Rate 1,000 g/ha, post-emergence spray, evaluated after 13 days (100=total damage to plant; 0=no damage to plant), read-out: Percentage damage caused to weed species, post-emergence, SETFA.
The mark [24] stands for this setting: Rate 1,000 g/ha, post-emergence spray, evaluated after 13 days (100=total damage to plant; 0=no damage to plant), read-out: Percentage damage caused to weed species, post-emergence, SOLNI.

One may read the melting point as the temperature of the solid-liquid transition.

In the case of `O=C(O)c1nc(C2CC2)nc(NCc2ccco2)c1Cl` [Compound 1-125, 5-chloro-2-cyclopropyl-4-(furan-2-ylmethylamino)-pyrimidine-6-carboxylic acid], the melting point lay in the range of 150 to 152 °C. For the same molecule, the pest or weed control at 1000 g/ha in data set [1] (pre-emergence, 1,000 g/ha, evaluated after 13 days (100=total damage; 0=no damage), read-out: Percentage damage ALOMY) turned out to be 60%. Further, the pest or weed control at 1000 g/ha in [2] (pre-emergence, 1,000 g/ha, evaluated after 13 days (100=total damage; 0=no damage), read-out: Percentage damage IPOHE) amounted to 100%. For the same molecule, the pest or weed control at 1000 g/ha in data set [3] (pre-emergence, 1,000 g/ha, evaluated after 13 days (100=total damage; 0=no damage), read-out: Percentage damage AMARE) came out at 100%. In data set [4] (pre-emergence, 1,000 g/ha, evaluated after 13 days (100=total damage; 0=no damage), read-out: Percentage damage ECHCG), the pest or weed control at 1000 g/ha came to 80%. Also, the pest or weed control at 1000 g/ha in data set [5] (pre-emergence, 1,000 g/ha, evaluated after 13 days (100=total damage; 0=no damage), read-out: Percentage damage SETFA) is 70%. In data set [6] (pre-emergence, 1,000 g/ha, evaluated after 13 days (100=total damage; 0=no damage), read-out: Percentage damage SOLNI), the pest or weed control at 1000 g/ha came to 100%. In addition, in [7] (post-emergence, 1,000 g/ha, evaluated after 13 days (100=total damage; 0=no damage), read-out: Percentage damage caused to weed species, ALOMY), the pest or weed control at 1000 g/ha was determined as 60%. The pest or weed control at 1000 g/ha in [8] (post-emergence, 1,000 g/ha, evaluated after 13 days (100=total damage; 0=no damage), read-out: Percentage damage caused to weed species, IPOHE) came to 100%. For the same molecule, the pest or weed control at 1000 g/ha in data set [9] (post-emergence, 1,000 g/ha, evaluated after 13 days (100=total damage; 0=no damage), read-out: Percentage damage caused to weed species, AMARE) worked out at 100%. Moreover, in [10] (post-emergence, 1,000 g/ha, evaluated after 13 days (100=total damage; 0=no damage), read-out: Percentage damage caused to weed species, ECHCG), the pest or weed control at 1000 g/ha was 70%. Also, in [11] (post-emergence, 1,000 g/ha, evaluated after 13 days (100=total damage; 0=no damage), read-out: Percentage damage caused to weed species, SETFA), the pest or weed control at 1000 g/ha was 90%. Further, in data set [12] (post-emergence, 1,000 g/ha, evaluated after 13 days (100=total damage; 0=no damage), read-out: Percentage damage caused to weed species, SOLNI), the pest or weed control at 1000 g/ha is 100%.

In the case of `C=Cc1c(NCc2ccco2)nc(C2CC2)nc1C(=O)OC` [Compound 31-125, 2-cyclopropyl-5-ethenyl-4-(furan-2-ylmethylamino)-6-methoxycarbonylpyrimidine], the melting point was in the range of 85 to 86 °C. Besides, the pest or weed control at 1000 g/ha in data set [1] (setting [13]) was 20%. Moreover, the pest or weed control at 1000 g/ha in [2] (setting [14]) turned out to be 100%. Also, the pest or weed control at 1000 g/ha in data set [3] (setting [15]) was 90%. Also, the pest or weed control at 1000 g/ha in data set [4] (setting [16]) worked out at 20%. Also, in data set [5] (setting [17]), the pest or weed control at 1000 g/ha was found to be 20%. Further, the pest or weed control at 1000 g/ha in [6] (setting [18]) turned out to be 80%. For the same molecule, the pest or weed control at 1000 g/ha in data set [7] (setting [19]) stood at 10%. Moreover, the pest or weed control at 1000 g/ha in data set [8] (setting [20]) worked out at 50%. In addition, in [9] (setting [21]), the pest or weed control at 1000 g/ha is 90%. Moreover, the pest or weed control at 1000 g/ha in data set [10] (setting [22]) was determined as 0%. Moreover, the pest or weed control at 1000 g/ha in data set [11] (setting [23]) turned out to be 10%. In addition, the pest or weed control at 1000 g/ha in data set [12] (setting [24]) was 80%.

Take `COC(=O)c1nc(-c2ccc(Cl)cc2)nc(NCc2ccco2)c1Cl` [Compound 40-125, 5-chloro-2-(4-chlorophenyl)-4-(furan-2-ylmethylamino)-6-methoxycarbonylpyrimidine]: the melting point lay in the range of 132 to 134 °C. In data set [1] (setting [13]), the pest or weed control at 1000 g/ha worked out at 40%. Also, in data set [2] (setting [14]), the pest or weed control at 1000 g/ha is 20%. In addition, the pest or weed control at 1000 g/ha in data set [3] (setting [15]) was found to be 100%. Also, the pest or weed control at 1000 g/ha in [4] (setting [16]) was 50%. For the same molecule, in [5] (setting [17]), the pest or weed control at 1000 g/ha was 40%. In addition, in [6] (setting [18]), the pest or weed control at 1000 g/ha was 80%. In addition, the pest or weed control at 1000 g/ha in [7] (setting [19]) is 50%. In addition, the pest or weed control at 1000 g/ha in [8] (setting [20]) came out at 90%. For the same molecule, the pest or weed control at 1000 g/ha in data set [9] (setting [21]) came to 100%. Further, the pest or weed control at 1000 g/ha in [10] (setting [22]) amounted to 70%. In data set [11] (setting [23]), the pest or weed control at 1000 g/ha came out at 90%. In [12] (setting [24]), the pest or weed control at 1000 g/ha came to 90%.

Molecule `NC(=O)c1nc(C2CC2)nc(NCc2ccco2)c1Cl` [Compound 201-125, 6-aminocarbonyl-5-chloro-2-cyclopropyl-4-(furan-2-ylmethylamino)-pyrimidine] gave a melting point of 126 to 128 °C. In addition, in data set [1] (setting [13]), the pest or weed control at 1000 g/ha came out at 20%. The pest or weed control at 1000 g/ha in [2] (setting [14]) is 40%. The pest or weed control at 1000 g/ha in data set [3] (setting [15]) is 70%. For the same molecule, in [4] (setting [16]), the pest or weed control at 1000 g/ha turned out to be 0%. Further, the pest or weed control at 1000 g/ha in data set [5] (setting [17]) came to 0%. The pest or weed control at 1000 g/ha in [6] (setting [18]) came out at 70%. In addition, the pest or weed control at 1000 g/ha in [7] (setting [19]) is 20%. Moreover, in [8] (setting [20]), the pest or weed control at 1000 g/ha is 70%. The pest or weed control at 1000 g/ha in [9] (setting [21]) was determined as 90%. Besides, in data set [10] (setting [22]), the pest or weed control at 1000 g/ha was determined as 20%. In addition, the pest or weed control at 1000 g/ha in [11] (setting [23]) was 50%. The pest or weed control at 1000 g/ha in [12] (setting [24]) was determined as 90%.

With `COC(=O)c1nc(Cl)nc(NCc2ccco2)c1Cl` [Compound 207-48, 2,5-dichloro-4-(furan-2-ylmethylamino)-6-methoxy carbonylpyrimidine], the melting point is 110 to 112 °C. The pest or weed control at 1000 g/ha in data set [1] (setting [13]) worked out at 20%. The pest or weed control at 1000 g/ha in data set [2] (setting [14]) turned out to be 40%. Further, the pest or weed control at 1000 g/ha in data set [3] (setting [15]) worked out at 30%. Also, in [4] (setting [16]), the pest or weed control at 1000 g/ha was 10%. The pest or weed control at 1000 g/ha in [5] (setting [17]) came to 20%. In data set [6] (setting [18]), the pest or weed control at 1000 g/ha stood at 40%. Also, in data set [7] (setting [19]), the pest or weed control at 1000 g/ha amounted to 10%. Moreover, the pest or weed control at 1000 g/ha in [8] (setting [20]) amounted to 30%. Further, the pest or weed control at 1000 g/ha in data set [9] (setting [21]) worked out at 30%. Also, the pest or weed control at 1000 g/ha in data set [10] (setting [22]) stood at 10%. Further, the pest or weed control at 1000 g/ha in data set [11] (setting [23]) was 10%. Further, the pest or weed control at 1000 g/ha in [12] (setting [24]) worked out at 60%.
